The values below come from patent US12564191B2, “Pesticidal compounds” (priority 2020, dated 2026).

What all share (format): in vivo
For series [1], the system named is Tobacco budworm (Heliothis virescens). The experiment in a line: Tobacco budworm (Heliothis virescens) microtiter diet test, egg and larval mortality. The settings on record: 120 h, sprayed onto insect diet, assessed after 5 days, read-out: egg and larval mortality in comparison with untreated controls. Here is the method:
B.5. Tobacco Budworm (Heliothis virescens)
For evaluating control of tobacco budworm (Heliothis virescens) the test unit consisted of 96-well-microtiter plates containing an insect diet and 15-25 H. virescens eggs.
The compounds were formulated using a solution containing 75% v/v water and 25% v/v DMSO. Different concentrations of formulated compounds were sprayed onto the insect diet at 10 μl, using a custom built micro atomizer, at two replications.
After application, microtiter plates were incubated at about 28±1° C. and about 80±5% relative humidity for 5 days. Egg and larval mortality was then visually assessed.

Series [2] concerns Yellow fever mosquito (Aedes aegypti). The experiment in a line: whole plant or invertebrate. To be noted: 48 h, freshly hatched larvae in tap water, assessed after 2 days, read-out: larval mortality in comparison with untreated controls. Here is the method:
B.6. Yellow Fever Mosquito (Aedes aegypti)
For evaluating control of yellow fever mosquito (Aedes aegypti) the test unit consisted of 96-well-microtiter plates containing 200 μl of tap water per well and 5-15 freshly hatched A. aegypti larvae. The active compounds were formulated using a solution containing 75% (v/v) water and 25% (v/v) DMSO. Different concentrations of formulated compounds or mixtures were sprayed onto the insect diet at 2.5 μl, using a custom built micro atomizer, at two replications.
After application, microtiter plates were incubated at 28+1° C., 80+5% RH for 2 days. Larval mortality was then visually assessed.

Series [3] concerns Diamond back moth (Plutella xylostella). Kind of series: Diamond back moth (Plutella xylostella) cabbage leaf dip test. To be noted: foliar, 3rd instar larvae, 72 hours after treatment, read-out: mortality in comparison with untreated controls. The method, then:
B.2. Diamond Back Moth (Plutella xylostella)
The active compound is dissolved at the desired concentration in a mixture of 1:1 (vol:vol) distilled water:acetone. Surfactant (Alkamuls® EL 620) is added at a rate of 0.1% (vol/vol). The test solution is prepared at the day of use.
Leaves of cabbage were dipped in test solution and air-dried. Treated leaves were placed in petri dish enlined with moist filter paper and inoculated with ten 3rd instar larvae. Mortality was recorded 72 hours after treatment. Feeding damages were also recorded using a scale of 0-100%.

Series [4] has as its system Southern Armyworm (Spodoptera eridania), 2nd Instar Larvae. The experiment in a line: Southern armyworm 2nd instar larvae on sprayed lima bean plants. To be noted: 96 h, 4 days after treatment, read-out: mortality in comparison with untreated controls. Here is the method:
B.4. Southern Armyworm (Spodoptera eridania), 2nd Instar Larvae
The active compounds were formulated in cyclohexanone as a 10,000 ppm solution supplied in tubes. The tubes were inserted into an automated electrostatic sprayer equipped with an atomizing nozzle and they served as stock solutions for which lower dilutions were made in 50% acetone:50% water (v/v). A nonionic surfactant (Kinetic®) was included in the solution at a volume of 0.01% (v/v).
Lima bean plants (variety Sieva) were grown 2 plants to a pot and selected for treatment at the 1st true leaf stage. Test solutions were sprayed onto the foliage by an automated electrostatic plant sprayer equipped with an atomizing spray nozzle. The plants were dried in the sprayer fume hood and then removed from the sprayer. Each pot was placed into perforated plastic bags with a zip closure. About 10 to 11 armyworm larvae were placed into the bag and the bags zipped closed. Test plants were maintained in a growth room at about 25° C. and about 20-40% relative humidity for 4 days, avoiding direct exposure to fluorescent light (24 hour photoperiod) to prevent trapping of heat inside the bags. Mortality and reduced feeding were assessed 4 days after treatment, compared to untreated control plants.

For series [5], the system named is Orchid thrips (Dichromothrips corbetti). The experiment in a line: Orchid thrips (Dichromothrips corbetti) floral-immersion test. To be noted: adult thrips, 72 hours after treatment, read-out: mortality in comparison with untreated controls. Here is the method: B.7. Orchid Thrips (Dichromothrips corbetti)
Dichromothrips corbetti adults used for bioassay were obtained from a colony maintained continuously under laboratory conditions. For testing purposes, the test compound is diluted in a 1:1 mixture of acetone:water (vol:vol), plus Kinetic® HV at a rate of 0.01% v/v.
Thrips potency of each compound was evaluated by using a floral-immersion technique. All petals of individual, intact orchid flowers were dipped into treatment solution and allowed to dry in Petri dishes. Treated petals were placed into individual re-sealable plastic along with about 20 adult thrips. All test arenas were held under continuous light and a temperature of about 28° C. for duration of the assay. After 3 days, the numbers of live thrips were counted on each petal. The percent mortality was recorded 72 hours after treatment.

The test system of series [6] is Western flower thrips (Frankliniella occidentalis). Kind of series: Western flower thrips (Frankliniella occidentalis) cotton leaf disc test. The settings on record: foliar, 48 h, treated cotton leaf discs, 2 DAT, read-out: mortality in comparison with untreated controls. The method, then: B.9. Western Flower Thrips (Frankliniella occidentalis)
The active compounds were formulated by a Tecan liquid handler in 100% cyclohexanone as a 10,000 ppm solution supplied in tubes. The 10,000 ppm solution was serially diluted in 100% cyclohexanone to make interim solutions. These served as stock solutions for which final dilutions were made by the Tecan in 50% acetone:50% water (v/v) into 10 or 20 ml glass vials. A nonionic surfactant (Kinetic®) was included in the solution at a volume of 0.01% (v/v). The vials were then inserted into an automated electrostatic sprayer equipped with an atomizing nozzle for application to plants/insects.
Small (˜2″ in height) cotton plants are sprayed with test compounds at concentrations ranging from 300 to 0.01 ppm in acetone/water through the automated VPS. After drying, cotton leaves are removed and circular leaf discs (˜1 cm diameter) are punched from the treated surface and transferred to clean 20 mL scintillation vials. Ten Western flower thrips (FRANOC) are aspirated into each scintillation vial. The vials with the leaf discs and thrips are kept in an upright incubator at 25° C. and 50% relative humidity with a 14:10 light:dark photoperiod. Each treatment is replicated twice.
Thrips mortality is assessed at 2 DAT (days after treatment), counting all thrips both dead and alive. [The average absolute mortality is calculated for each treatment.]

The subject of series [7] is Silverleaf Whitefly (Bemisia argentifolih) (Adults). The experiment in a line: Silverleaf whitefly adults on sprayed cotton plants. The settings on record: 300 ppm, 3 days after treatment. An excerpt:
B.3 Silverleaf Whitefly (Bemisia argentifolih) (Adults)
The active compounds were formulated in cyclohexanone as a 10,000 ppm solution supplied in tubes. The tubes were inserted into an automated electrostatic sprayer equipped with an atomizing nozzle and they served as stock solutions for which lower dilutions were made in 50% acetone:50% water (v/v). A non-ionic surfactant (Kinetic®) was included in the solution at a volume of 0.01% (v/v).
Cotton plants at the cotyledon stage (one plant per pot) were sprayed by an automated electrostatic plant sprayer equipped with an atomizing spray nozzle. The plants were dried in the sprayer fume hood and then removed from the sprayer. Each pot was placed into a plastic cup and about 10 to 12 whitefly adults (approximately 3-5 days old) were introduced. The insects were collected using an aspirator and a nontoxic Tygon® tubing connected to a barrier pipette tip. The tip, containing the collected insects, was then gently inserted into the soil containing the treated plant, allowing insects to crawl out of the tip to reach the foliage for feeding. Cups were covered with a reusable screened lid. […] Mortality was assessed 3 days after treatment, compared to untreated control plants.

A word on the mortality: it is the share of the test organisms that died. On to `Cc1ccc(C(C)C)c(N2C(=O)CS/C2=N\N=C\c2ccc(-c3nccc(NC(=O)c4ccc(C(F)(F)F)cc4)n3)cc2)c1` [Example C-5, N-[2-[4-[(E)-[(Z)-[3-(2-isopropyl-5-methyl-phenyl)-4-oxo-thiazolidin-2-ylidene]hydrazono]methyl]phenyl]pyrimidin-4-yl]-4-(trifluoromethyl)benzamide], for which the mortality at 2500 ppm in series [1] and in series [2] was over 75% throughout.
Take `CC(C)c1ccccc1/N=C1\SCC(=O)N1/N=C/c1ccc(-c2cc(NC(=O)c3ccc(OC(F)(F)F)cc3)ncn2)cc1` [Example C-12, N-[6-[4-[(E)-[(2Z)-2-(2-isopropylphenyl)imino-4-oxo-thiazolidin-3-yl]iminomethyl]phenyl]pyrimidin-4-yl]-4-(trifluoromethoxy)benzamide]: the mortality at 500 ppm in series [3], in series [4] and in series [5] was over 75% throughout. In series [1], the mortality at 2500 ppm is over 75%. In series [6], the mortality at 300 ppm is over 75%.
As for `CO[C@@H]1[C@@H](OC)[C@H](C)O[C@@H](O/N=C/c2ccc(-c3cc(NC(=O)c4ccc(OC(F)(F)F)cc4)ncn3)cc2)[C@@H]1OC` [Example C-13, 4-(trifluoromethoxy)-N-[6-[4-[(E)-[(2S,3R,4R,5S,6S)-3,4,5-trimethoxy-6-methyl-tetrahydropyran-2-yl]oxyiminomethyl]phenyl]pyrimidin-4-yl]benzamide], in series [1], the mortality at 2500 ppm is over 75%.
With `CC(C)c1ccccc1NC(=S)NN=Cc1ccc(-c2cc(C(=N)Nc3ccc(OC(F)(F)F)cc3)ncn2)cc1` [Example C-25], the “mortality in comparison with untreated controls” value in series [7] was “over 75%”.
